Consider 22 compounds from patent publication US9867833B2, “Serine/threonine kinase inhibitors” (GENENTECH, INC., priority 2013, dated 2018).

The target of this test is human ERK-2 (Mitogen Activated Kinase 1) (Homo sapiens (Human), UniProt P28482). The test is described as follows: ERK-2 Enzymatic Assay. It is filed as biochemical. Conditions: human ERK-2 enzyme 5 nM, 25 μM ATP, S/T17 peptide substrate; isomer = configuration of CR2R3. The protocol: Compounds were tested in an enzymatic assay using human ERK-2 (Mitogen Activated Kinase 1), recombinantly expressed as an n-terminal 6-His fusion protein in E. coli and corresponding to aa 8-360. […] Test compounds were diluted in DMSO in 3-fold serial dilutions at 100× final concentrations. […] The data collected from each well was fit to a straight line, and the resulting rates were used to calculate percent of control. Percent of control was plotted against compound concentration, and IC50 values were determined using a four-parameter fit.
Chain of human ERK-2 (Mitogen Activated Kinase 1) (P28482 8-360): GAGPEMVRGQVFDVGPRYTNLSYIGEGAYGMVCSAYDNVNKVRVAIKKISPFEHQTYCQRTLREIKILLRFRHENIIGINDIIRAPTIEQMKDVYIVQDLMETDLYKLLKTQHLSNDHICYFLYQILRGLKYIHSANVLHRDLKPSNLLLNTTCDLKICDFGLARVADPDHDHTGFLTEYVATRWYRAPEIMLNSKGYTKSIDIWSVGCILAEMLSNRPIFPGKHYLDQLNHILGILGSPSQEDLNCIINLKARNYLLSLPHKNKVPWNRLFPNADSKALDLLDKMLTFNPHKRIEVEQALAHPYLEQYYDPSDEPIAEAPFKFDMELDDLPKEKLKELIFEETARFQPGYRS
As to `Cn1nccc1Nc1cc(-c2cc3n4c(nnc4c2)[C@H](c2ccccc2)CN3)ccn1` (single isomer, unassigned) [(R) I-4, N-(1-methyl-1H-pyrazol-5-yl)-4-(3-phenyl-4,5-dihydro-3H-1,2,2a^1,5-tetraazaacenaphthylen-7-yl)pyridin-2-amine], inhibition was half-maximal at 43.1 nM (IC50).

Take `Cn1nccc1Nc1cc(-c2cc3n4c(nnc4c2)C(Cc2ccccc2Cl)CCO3)ccn1` (single isomer, unassigned) [(R) I-30, 4-(9-(2-chlorobenzyl)-8,9-dihydro-7H-6-oxa-1,2,2a^1-triazabenzo[cd]azulen-4-yl)-N-(1-methyl-1H-pyrazol-5-yl)pyridin-2-amine]: 2.55 nM corresponded to half-maximal inhibition (IC50).

As to `CCC(C)CC1COc2cc(-c3ccnc(Nc4ccnn4C)n3)cc3nnc1n23` (single isomer, unassigned) [(R) I-52, N-(1-methyl-1H-pyrazol-5-yl)-4-(3-(2-methylbutyl)-3,4-dihydro-5-oxa-1,2,2a^1-triazaacenaphthylen-7-yl)pyrimidin-2-amine], the concentration for half-maximal inhibition (IC50) (in general, the midpoint of a concentration-inhibition curve) is below 0.02 nM.

Consider `Cn1nccc1Nc1cc(-c2cc3n4c(nnc4c2)C(Cc2ccc(Cl)cc2)CO3)ccn1` (single isomer, unassigned) [(R) I-55, 4-(3-(4-chlorobenzyl)-3,4-dihydro-5-oxa-1,2,2a^1-triazaacenaphthylen-7-yl)-N-(1-methyl-1H-pyrazol-5-yl)pyridin-2-amine], for which the IC50 is below 0.02 nM.

In the case of `Cn1nccc1Nc1cc(-c2cc3n4c(nnc4c2)C(Cc2ccccc2Cl)CCO3)ccn1` (single isomer, unassigned) [(R) I-60, 4-(9-(2-chlorobenzyl)-8,9-dihydro-7H-6-oxa-1,2,2a^1-triazabenzo[cd]azulen-4-yl)-N-(1-methyl-1H-pyrazol-5-yl)pyridin-2-amine], the concentration for half-maximal inhibition (IC50) stood at 2.55 nM.

In the case of `CCCC1COc2cc(-c3ccnc(Nc4ccnn4C)n3)cc3nnc1n23` (single isomer, unassigned) [(R) I-101, N-(1-methyl-1H-pyrazol-5-yl)-4-(3-propyl-3,4-dihydro-5-oxa-1,2,2a^1-triazaacenaphthylen-7-yl)pyrimidin-2-amine], the half-maximal inhibitory concentration (IC50) was 0.038 nM.

Take `Cn1nccc1Nc1cc(-c2cc3n4c(nnc4c2)[C@@H](c2ccccc2)CN3)ccn1` (single isomer, unassigned) [(S) I-4, N-(1-methyl-1H-pyrazol-5-yl)-4-(3-phenyl-4,5-dihydro-3H-1,2,2a^1,5-tetraazaacenaphthylen-7-yl)pyridin-2-amine]: the concentration for half-maximal inhibition (IC50) was below 0.02 nM.

`CCC(C)CC1COc2cc(-c3ccnc(Nc4ccnn4C)n3)cc3nnc1n23` (single isomer, unassigned) [(S) I-52, N-(1-methyl-1H-pyrazol-5-yl)-4-(3-(2-methylbutyl)-3,4-dihydro-5-oxa-1,2,2a^1-triazaacenaphthylen-7-yl)pyrimidin-2-amine] returned an IC50 of 93.4 nM.

Consider `Cn1nccc1Nc1cc(-c2cc3n4c(nnc4c2)C(Cc2ccc(Cl)cc2)CO3)ccn1` (single isomer, unassigned) [(S) I-55, 4-(3-(4-chlorobenzyl)-3,4-dihydro-5-oxa-1,2,2a^1-triazaacenaphthylen-7-yl)-N-(1-methyl-1H-pyrazol-5-yl)pyridin-2-amine], for which it took 12.5 nM to reach half-maximal inhibition (IC50).

Compound `Cn1nccc1Nc1cc(-c2cc3n4c(nnc4c2)C(Cc2ccccc2Cl)CCO3)ccn1` (single isomer, unassigned) [(S) I-60, 4-(9-(2-chlorobenzyl)-8,9-dihydro-7H-6-oxa-1,2,2a^1-triazabenzo[cd]azulen-4-yl)-N-(1-methyl-1H-pyrazol-5-yl)pyridin-2-amine] yielded an IC50 below 0.02 nM.

For the compound `CCCC1COc2cc(-c3ccnc(Nc4ccnn4C)n3)cc3nnc1n23` (single isomer, unassigned) [(S) I-101, N-(1-methyl-1H-pyrazol-5-yl)-4-(3-propyl-3,4-dihydro-5-oxa-1,2,2a^1-triazaacenaphthylen-7-yl)pyrimidin-2-amine], the half-maximal inhibitory concentration (IC50) turned out to be 19.5 nM.

For the compound `Cn1nccc1Nc1nccc(-c2cc3n4c(nnc4c2)[C@H](c2ccccc2)CN3)n1` [(R) I-1, N-(1-methyl-1H-pyrazol-5-yl)-4-(3-phenyl-4,5-dihydro-3H-1,2,2a^1,5-tetraazaacenaphthylen-7-yl)pyrimidin-2-amine], half-maximal inhibition (IC50) was put at 179 nM.

`Cn1nccc1Nc1nccc(-c2cc3n4c(nnc4c2)[C@H](Cc2ccccc2)CN3)n1` [(R) I-2, (R)-4-(3-benzyl-4,5-dihydro-3H-1,2,2a^1,5-tetraazaacenaphthylen-7-yl)-N-(1-methyl-1H-pyrazol-5-yl)pyrimidin-2-amine] came in with a half-inhibitory concentration (IC50) of 0.38 nM.

For the compound `Cn1nccc1Nc1nccc(-c2cc3n4c(nnc4c2)[C@H](Cc2ccc(Cl)cc2)CN3)n1` [(R) I-5, 4-(3-(4-chlorobenzyl)-4,5-dihydro-3H-1,2,2a^1,5-tetraazaacenaphthylen-7-yl)-N-(1-methyl-1H-pyrazol-5-yl)pyrimidin-2-amine], the midpoint of inhibition, the IC50, lay at 0.408 nM.

As to `Cn1nccc1Nc1cc(-c2cc3n4c(nnc4c2)[C@H](Cc2ccccc2)CN3)ccn1` [(R) I-7, 4-(3-benzyl-4,5-dihydro-3H-1,2,2a^1,5-tetraazaacenaphthylen-7-yl)-N-(1-methyl-1H-pyrazol-5-yl)pyridin-2-amine], the half-inhibitory concentration (IC50) turned out to be 0.707 nM.

`Cn1nccc1Nc1cc(-c2cc3n4c(ncc4c2)[C@H](Cc2ccc(Cl)cc2)CN3)ccn1` [(R) I-8, 4-(3-(4-chlorobenzyl)-4,5-dihydro-3H-1,2,2a^1,5-tetraazaacenaphthylen-7-yl)-N-(1-methyl-1H-pyrazol-5-yl)pyridin-2-amine] displayed a concentration for half-maximal inhibition (IC50) of 1.55 nM.

The compound `CN1C[C@@H](Cc2ccccc2)c2nnc3cc(-c4ccnc(Nc5ccnn5C)n4)cc1n23` [(R) I-9, 4-(3-benzyl-5-methyl-4,5-dihydro-3H-1,2,2a^1,5-tetraazaacenaphthylen-7-yl)-N-(1-methyl-1H-pyrazol-5-yl)pyrimidin-2-amine] gave an IC50 of 5.04 nM.

The compound `CC(C)C[C@@H]1CNc2cc(-c3ccnc(Nc4ccnn4C)n3)cc3nnc1n23` [(R) I-10, 4-(3-isobutyl-4,5-dihydro-3H-1,2,2a^1,5-tetraazaacenaphthylen-7-yl)-N-(1-methyl-1H-pyrazol-5-yl)pyrimidin-2-amine] came in with a half-inhibitory concentration (IC50) of 2.75 nM.

`COc1ccc(C[C@@H]2CNc3cc(-c4ccnc(Nc5ccnn5C)n4)cc4nnc2n34)cc1` [(R) I-11, 4-(3-(4-methoxybenzyl)-4,5-dihydro-3H-1,2,2a^1,5-tetraazaacenaphthylen-7-yl)-N-(1-methyl-1H-pyrazol-5-yl)pyrimidin-2-amine] showed an IC50 of 0.514 nM.

As to `COc1ccc(C[C@@H]2CNc3cc(-c4ccnc(Nc5ccnn5C)n4)cc4nnc2n34)cc1F` [(R) I-12, 4-(3-(3-fluoro-4-methoxybenzyl)-4,5-dihydro-3H-1,2,2a^1,5-tetraazaacenaphthylen-7-yl)-N-(1-methyl-1H-pyrazol-5-yl)pyrimidin-2-amine], half-maximal inhibition (IC50) required 0.311 nM.

With `Cn1nccc1Nc1nccc(-c2cc3n4c(nnc4c2)[C@H](Cc2ccc(Cl)c(F)c2)CN3)n1` [(R) I-14, 4-(3-(4-chloro-3-fluorobenzyl)-4,5-dihydro-3H-1,2,2a^1,5-tetraazaacenaphthylen-7-yl)-N-(1-methyl-1H-pyrazol-5-yl)pyrimidin-2-amine], the half-inhibitory concentration (IC50) is 0.0441 nM.

Compound `Cn1nccc1Nc1nccc(-c2cc3n4c(nnc4c2)[C@@H](Cc2ccccc2)CO3)n1` [(R) I-15, 4-(3-benzyl-3,4-dihydro-5-oxa-1,2,2a^1-triazaacenaphthylen-7-yl)-N-(1-methyl-1H-pyrazol-5-yl)pyrimidin-2-amine] registered an IC50 of 0.02 nM.
